Columns and labels:
[1] = system: protein synthesis (luciferase reporter); assay: transcription/translation assay based on expression of a luciferase plasmid; format: biochemical; conditions: unit printed only in the Paromomycin cell and b169
Procedure: The compounds are screened for binding affinity using MASS or conventional high-throughput functional screens. The best scoring compounds from docking a 256-member library against the 16S A-site ribosomal RNA structure are shown in the table 5 below. The MASS assay was performed with the 27-mer model RNA sequence of the 16S A-site whose NMR structure has been determined. The transcription/translation assay was based on expression of a luciferase plasmid.

18S A site model = assay: ESI-FTICR mass spectrometric complex detection with 18S A-site model RNA; format: binding, eukaryotic; conditions: mixture of five aminoglycosides, 16S and 18S targets simultaneously
Procedure: Paromomycin, lividomycin (MW=761.354 Da), sisomicin (MW=447.269 Da), tobramycin (MW=467.2591 Da), and bekanamycin (MW=483.254 Da) were obtained from Sigma (St. Louis, Mo.) and ICN (Costa Mesa, Calif.) and were dissolved to generate 10 mM stock solutions. 2′ methoxy analogs of RNA constructs representing the prokaryotic (16S) rRNA and eukaryotic (18S) rRNA A-site were synthesized in house and precipitated twice from 1 M ammonium acetate following deprotection with ammonia (pH 8.5). The mass-tagged constructs contained an 18-atom mass tag (C12H2509) attached to the 5′-terminus of the RNA oligomer through a phosphodiester linkage.
All mass spectrometry experiments were performed using an Apex II 70e electrospray ionization Fourier transform ion cyclotron resonance mass spectrometer (Bruker Daltonics, Billerica) employing an actively shielded 7 tesla superconducting magnet. […]
Mass spectrometry experiments were performed in order to detect complex formation between a library containing five aminoglycosides (Sisomicin (Sis), Tobramycin (Tob), Bekanomycin (Bek), Paromomycin (PM), and Livodomycin (LV)) and two RNA targets simultaneously. Signals from the (M-5H+)^5− charge states of free 16S and 18S RNAs are detected at m/z 1801.515 and 1868.338, respectively. […]

16S A-site RNA = conditions: previously reported / solution value for 16S A site; read-out: literature Kd; cited from earlier work

Structure (SMILES): NC[C@@H]1O[C@H](O[C@H]2[C@@H](O)[C@H](O[C@@H]3[C@@H](O)[C@H](N)C[C@H](N)[C@H]3O[C@H]3O[C@H](CO)[C@@H](O)[C@H](O)[C@H]3N)O[C@@H]2CO)[C@H](N)[C@@H](O)[C@@H]1O [Paromomycin]
- Activity: Inhibition of protein synthesis in transcription/translation assay for luciferase reporter [1]: 0.3 µM
- complexes with the 18S A site model (18S A site model): absence
- Kd (16S A-site RNA): 200 nM

— US20030083483A1, “Molecular interaction sites of vimentin RNA and methods of modulating the same” (priority 1999, published 2003)
